Measured values from patent US6737383B1, “Herbicidal oxadiazolidines” (priority 1999, dated 2004).

Columns and labels:
wild oat = experiment: Test B pre/postemergence wild oat; format: in vivo, Avena fatua; conditions: for Plant response rating, Wild oats: Postemergence
Procedure, shortened: (§1)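 Test chemicals in a non-phytotoxic solvent mixture with surfactant were sprayed preemergence onto planted seeds and postemergence onto plants 2 to 18 cm tall (1- to 4-leaf stage). After twelve to sixteen days in a greenhouse, injury was visually rated against untreated controls from 0 (no effect) to 10 (complete control).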

crabgrass = experiment: Test B pre/postemergence crabgrass; format: in vivo, Digitaria sanguinalis
Procedure, shortened: as §1

soybean = experiment: Test B pre/postemergence soybean; format: in vivo, Glycine max; conditions: for Plant response rating, Soybean: Postemergence
Procedure, shortened: as §1

surinam grass = experiment: Test B pre/postemergence surinam grass; format: in vivo, Brachiaria decumbens
Procedure, shortened: as §1

pigweed = experiment: Test B pre/postemergence pigweed; format: in vivo, Amaranthus retroflexus; conditions: for Plant response rating, Redroot pigweed: Postemergence
Procedure, shortened: as §1

sugar beet = experiment: Test B pre/postemergence sugar beet; format: in vivo, Beta vulgaris; conditions: for Plant response rating, Sugarbeets: Postemergence
Procedure, shortened: as §1

giant foxtail = experiment: Test B pre/postemergence giant foxtail; format: in vivo, Setaria faberii
Procedure, shortened: as §1

purple nutsedge = experiment: Test B pre/postemergence purple nutsedge; format: in vivo, Cyperus rotundus
Procedure, shortened: as §1

rape = experiment: Test B pre/postemergence rape; format: in vivo, Brassica napus
Procedure, shortened: as §1

morningglory = experiment: Test B pre/postemergence morningglory; format: in vivo, Ipomoea hederacea
Procedure, shortened: as §1

wheat = experiment: Test B pre/postemergence wheat; format: in vivo, Triticum aestivum; conditions: for Plant response rating, Wheat: Postemergence
Procedure, shortened: as §1

velvetleaf = experiment: Test B pre/postemergence velvetleaf; format: in vivo, Abutilon theophrasti; conditions: for Plant response rating, Velvetleaf: Postemergence
Procedure, shortened: as §1

blackgrass = experiment: Test B pre/postemergence blackgrass; format: in vivo, Alopecurus myosuroides
Procedure, shortened: as §1

bedstraw = experiment: Test B pre/postemergence bedstraw; format: in vivo, Galium aparine; conditions: Preemergence
Procedure, shortened: as §1

corn = experiment: Test B pre/postemergence corn; format: in vivo, Zea mays
Procedure, shortened: as §1

cocklebur = experiment: Test B pre/postemergence cocklebur; format: in vivo, Xanthium strumarium
Procedure, shortened: as §1

[1] = Rate 500 g/ha, scale of 0 to 10 where 0 is no effect and 10 is complete control
[2] = Preemergence, Rate 62 g/ha, scale 0 to 10 (0 no effect, 10 complete control)
[3] = Preemergence, Rate 125 g/ha, scale 0 to 10, 0 is no effect, 10 is complete control
[4] = Preemergence, Rate 500 g/ha, scale of 0 to 10 where 0 is no effect and 10 is complete control
[5] = Rate 250 g/ha, scale of 0 to 10 where 0 is no effect and 10 is complete control
[6] = Postemergence, Rate 62 g/ha, scale of 0 to 10, 0 is no effect, 10 is complete control
[7] = Postemergence, Rate 125 g/ha, scale 0 to 10, 0 is no effect, 10 is complete control
[8] = Postemergence, Rate 500 g/ha, scale of 0 to 10 where 0 is no effect and 10 is complete control
[9] = Rate 250 g/ha, Postemergence, scale of 0 to 10 where 0 is no effect and 10 is complete control

CCN(CC)C(=O)Cn1c(=O)on(C(=O)N(c2ccccc2)C(C)C)c1=O [Compound 571]
9: B. signalgrass plant response rating (surinam grass; [4]) | Redroot pigweed plant response rating (0 to 10 scale) (pigweed; Preemergence, Rate 250 g/ha) | Redroot pigweed plant response rating (pigweed; [4]) | Giant foxtail plant response rating (0 to 10 scale) (giant foxtail; Preemergence, Rate 250 g/ha) | Giant foxtail plant response rating (giant foxtail; [4]) | Wheat plant response rating (wheat; [4]) | Blackgrass plant response rating (blackgrass; [4])
10: Morningglory plant response rating (morningglory; [7]) | Plant response rating, Morningglory (morningglory; [8]) | Plant response rating, Morningglory (morningglory; [9])
0: Plant response rating, Wild oats (wild oat; [1]) | Wild oats plant response rating (wild oat; [2]) | Wild oats plant response rating (wild oat; [3]) | Plant response rating, Wild oats (wild oat; [5]) | Crabgrass plant response rating (crabgrass; [6]) | Crabgrass plant response rating (crabgrass; [7]) | Soybean plant response rating (soybean; [2]) | Soybean plant response rating (soybean; [3]) | Soybean plant response rating (0 to 10 scale) (soybean; Preemergence, Rate 250 g/ha) | B. signalgrass plant response rating (surinam grass; [6]) | B. signalgrass plant response rating (surinam grass; [7]) | B. signalgrass plant response rating (surinam grass; [2]) | Plant response rating, B. signalgrass (surinam grass; [9]) | Plant response rating, Redroot pigweed (pigweed; [1]) | Redroot pigweed plant response rating (pigweed; [2]) | Redroot pigweed plant response rating (pigweed; [3]) | Plant response rating, Redroot pigweed (pigweed; [5]) | Plant response rating, Sugarbeets (sugar beet; [1]) | Sugarbeets plant response rating (sugar beet; [2]) | Sugarbeets plant response rating (sugar beet; [3]) | Sugarbeets plant response rating (0 to 10 scale) (sugar beet; Preemergence, Rate 250 g/ha) | Sugarbeets plant response rating (sugar beet; [4]) | Plant response rating, Sugarbeets (sugar beet; [5]) | Giant foxtail plant response rating (giant foxtail; [6]) | Giant foxtail plant response rating (giant foxtail; [7]) | Nutsedge plant response rating (purple nutsedge; [6]) | Nutsedge plant response rating (purple nutsedge; [7]) | Plant response rating, Nutsedge (purple nutsedge; [8]) | Nutsedge plant response rating (purple nutsedge; [2]) | Nutsedge plant response rating (purple nutsedge; [3]) | Nutsedge plant response rating (0 to 10 scale) (purple nutsedge; Preemergence, Rate 250 g/ha) | Nutsedge plant response rating (purple nutsedge; [4]) | Plant response rating, Nutsedge (purple nutsedge; [9]) | Rape plant response rating (rape; [6]) | Rape plant response rating (rape; [7]) | Plant response rating, Rape (rape; [8]) | Rape plant response rating (rape; [2]) | Rape plant response rating (rape; [3]) | Rape plant response rating (0 to 10 scale) (rape; Preemergence, Rate 250 g/ha) | Plant response rating, Rape (rape; [9]) | Morningglory plant response rating (morningglory; [2]) | Morningglory plant response rating (morningglory; [3]) | Plant response rating, Wheat (wheat; [1]) | Wheat plant response rating (wheat; [2]) | Plant response rating, Wheat (wheat; [5]) | Plant response rating, Velvetleaf (velvetleaf; [1]) | Velvetleaf plant response rating (velvetleaf; [2]) | Velvetleaf plant response rating (velvetleaf; [3]) | Velvetleaf plant response rating (0 to 10 scale) (velvetleaf; Preemergence, Rate 250 g/ha) | Velvetleaf plant response rating (velvetleaf; [4]) | Plant response rating, Velvetleaf (velvetleaf; [5]) | Blackgrass plant response rating (blackgrass; [6]) | Blackgrass plant response rating (blackgrass; [7]) | Plant response rating, Blackgrass (blackgrass; [8]) | Blackgrass plant response rating (blackgrass; [2]) | Plant response rating, Blackgrass (blackgrass; [9]) | Bedstraw plant response rating (bedstraw; Rate 62 g/ha, scale 0 to 10 (0 no effect, 10 complete control)) | Bedstraw plant response rating (bedstraw; Rate 125 g/ha, scale 0 to 10, 0 is no effect, 10 is complete control) | Bedstraw plant response rating (0 to 10 scale) (bedstraw; Rate 250 g/ha) | Bedstraw plant response rating (bedstraw; [1]) | Corn plant response rating (corn; [6]) | Corn plant response rating (corn; [7]) | Plant response rating, Corn (corn; [8]) | Corn plant response rating (corn; [2]) | Corn plant response rating (corn; [3]) | Corn plant response rating (0 to 10 scale) (corn; Preemergence, Rate 250 g/ha) | Corn plant response rating (corn; [4]) | Plant response rating, Corn (corn; [9]) | Cocklebur plant response rating (cocklebur; [6]) | Cocklebur plant response rating (cocklebur; [7]) | Plant response rating, Cocklebur (cocklebur; [8]) | Cocklebur plant response rating (cocklebur; [2]) | Cocklebur plant response rating (cocklebur; [3]) | Cocklebur plant response rating (0 to 10 scale) (cocklebur; Preemergence, Rate 250 g/ha) | Cocklebur plant response rating (cocklebur; [4]) | Plant response rating, Cocklebur (cocklebur; [9])
7: Wild oats plant response rating (wild oat; [4])
4: Plant response rating, Soybean (soybean; [1]) | Morningglory plant response rating (morningglory; [6]) | Morningglory plant response rating (morningglory; [4])
5: Plant response rating, B. signalgrass (surinam grass; [8])
2: Crabgrass plant response rating (crabgrass; [2]) | Crabgrass plant response rating (crabgrass; [3]) | Plant response rating, Soybean (soybean; [5]) | Plant response rating, Giant foxtail (giant foxtail; [9]) | Rape plant response rating (rape; [4]) | Morningglory plant response rating (0 to 10 scale) (morningglory; Preemergence, Rate 250 g/ha) | Blackgrass plant response rating (blackgrass; [3])
3: Wild oats plant response rating (0 to 10 scale) (wild oat; Preemergence, Rate 250 g/ha) | Plant response rating, Crabgrass (crabgrass; [8]) | Crabgrass plant response rating (0 to 10 scale) (crabgrass; Preemergence, Rate 250 g/ha) | Crabgrass plant response rating (crabgrass; [4]) | Soybean plant response rating (soybean; [4]) | B. signalgrass plant response rating (surinam grass; [3]) | B. signalgrass plant response rating (0 to 10 scale, 0 is no effect, 10 is complete control) (surinam grass; Preemergence, Rate 250 g/ha) | Plant response rating, Giant foxtail (giant foxtail; [8]) | Giant foxtail plant response rating (giant foxtail; [2]) | Giant foxtail plant response rating (giant foxtail; [3]) | Wheat plant response rating (wheat; [3]) | Wheat plant response rating (0 to 10 scale) (wheat; Preemergence, Rate 250 g/ha) | Blackgrass plant response rating (0 to 10 scale) (blackgrass; Preemergence, Rate 250 g/ha)
